US10106558B2, “Azolobenzazine compounds, compositions comprising these compounds and their use for controlling invertebrate pests” (BASF SE, priority 2015, dated 2018)
Read-outs that look alike come from different tables or passages of the source.

What was measured:
Format in all cases: in vivo
[1] = tested on: yellow fever mosquito (Aedes aegypti); test: whole plant or invertebrate; conditions: 48 h, larval mortality visually assessed after 2 days, read-out: mortality in comparison with untreated controls
Procedure: Example B1: Action on Yellow Fever Mosquito (Aedes aegypti)
For evaluating control of yellow fever mosquito (Aedes aegypti) the test unit consisted of 96-well-microtiter plates containing 200 μl of tap water per well and 5-15 freshly hatched A. aegypti larvae.
The active compounds were formulated using a solution containing 75% (v/v) water and 25% (v/v) DMSO. Different concentrations of formulated compounds or mixtures were sprayed onto the insect diet at 2.5 μl, using a custom built micro atomizer, at two replications.
After application, microtiter plates were incubated at 28+1° C., 80+5% RH for 2 days. Larval mortality was then visually assessed.

[2] = tested on: boll weevil (Anthonomus grandis); test: Action on boll weevil, eggs on insect diet in 96-well microtiter plates; conditions: 120 h, read-out: mortality in comparison with untreated controls
Procedure: Example B3: Action on Boll Weevil (Anthonomus grandis)
For evaluating control of boll weevil (Anthonomus grandis) the test unit consisted of 96-well-microtiter plates containing an insect diet and 5-10 A. grandis eggs.
(§1) The compounds were formulated using a solution containing 75% v/v water and 25% v/v DMSO. Different concentrations of formulated compounds were sprayed onto the insect diet at 5 μl, using a custom built micro atomizer, at two replications.
After application, microtiter plates were incubated at about 25±1° C. and about 75±5% relative humidity for 5 days. Egg and larval mortality was then visually assessed.

[3] = tested on: Mediterranean fruitfly (Ceratitis capitata); test: Action on Mediterranean fruitfly, eggs on insect diet in microtiter plates; conditions: 120 h, egg and larval mortality visually assessed after 5 days, read-out: mortality in comparison with untreated controls
Procedure: Example B5: Action on Mediterranean Fruitfly (Ceratitis capitata)
For evaluating control of Mediterranean fruitfly (Ceratitis capitata) the test unit consisted of microtiter plates containing an insect diet and 50-80 C. capitata eggs.
as §1
After application, microtiter plates were incubated at about […] and about 80+5% relative humidity for 5 days. Egg and larval mortality was then visually assessed.

[4] = tested on: tobacco budworm (Heliothis virescens); test: Action on tobacco budworm, eggs on insect diet in 96-well microtiter plates; conditions: 120 h, egg and larval mortality visually assessed after 5 days, read-out: mortality in comparison with untreated controls
Procedure: Example B6: Action on Tobacco Budworm (Heliothis virescens)
For evaluating control of tobacco budworm (Heliothis virescens) the test unit consisted of 96-well-microtiter plates containing an insect diet and 15-25 H. virescens eggs.
The compounds were formulated using a solution containing 75% v/v water and 25% v/v DMSO. Different concentrations of formulated compounds were sprayed onto the insect diet at 10 μl, using a custom built micro atomizer, at two replications.
After application, microtiter plates were incubated at about 28±1° C. and about 80±5% relative humidity for 5 days. Egg and larval mortality was then visually assessed.

[5] = tested on: Orchid Thrips (Dichromothrips corbetti); test: Action on orchid thrips, floral-immersion technique; conditions: adult thrips, 72 hours after treatment, read-out: mortality in comparison with untreated controls
Procedure: Example B2: Action on Orchid Thrips (Dichromothrips Corbetti)
Dichromothrips corbettiadults used for bioassay were obtained from a colony maintained continuously under laboratory conditions. For testing purposes, the test compound is diluted in a 1:1 mixture of acetone:water (vol:vol), plus Kinetic® HV at a rate of 0.01% v/v.
Thrips potency of each compound was evaluated by using a floral-immersion technique. All petals of individual, intact orchid flowers were dipped into treatment solution and allowed to dry in Petri dishes. Treated petals were placed into individual re-sealable plastic along with about 20 adult thrips. All test arenas were held under continuous light and a temperature of about 28° C. for duration of the assay. After 3 days, the numbers of live thrips were counted on each petal. The percent mortality was recorded 72 hours after treatment.

[6] = tested on: Diamond Back Moth (Plutella xylostella); test: Action on diamond back moth, dipped cabbage leaves; conditions: 3rd instar larvae, 72 hours after treatment, read-out: mortality in comparison with untreated controls
Procedure: Example B9: Action on Diamond Back Moth (Plutella xylostella)
The active compound is dissolved at the desired concentration in a mixture of 1:1 (vol:vol) distilled water:acetone. Surfactant (Kinetic® HV) is added at a rate of 0.01% (vol/vol). The test solution is prepared at the day of use.
Leaves of cabbage were dipped in test solution and air-dried. Treated leaves were placed in petri dishes lined with moist filter paper and inoculated with ten 3rd instar larvae. Mortality was recorded 72 hours after treatment. Feeding damages were also recorded using a scale of 0-100%.

[7] = tested on: Southern Armyworm (Spodoptera eridania), 2nd instar larvae; test: Action on southern armyworm 2nd instar larvae, sprayed lima bean plants; conditions: 96 h, 4 days after treatment, read-out: mortality in comparison with untreated controls
Procedure: Example B10: Action on Southern Armyworm (Spodoptera eridania), 2nd Instar Larvae
The active compounds were formulated by a Tecan liquid handler in 100% cyclohexanone as a 10,000 ppm solution supplied in tubes. The 10,000 ppm solution was serially diluted in 100% cyclohexanone to make interim solutions. These served as stock solutions for which final dilutions were made by the Tecan in 50% acetone:50% water (v/v) into 10 or 20 ml glass vials. A nonionic surfactant (Kinetic®) was included in the solution at a volume of 0.01% (v/v). The vials were then inserted into an automated electrostatic sprayer equipped with an atomizing nozzle for application to plants/insects.
Lima bean plants (variety Sieva) were grown 2 plants to a pot and selected for treatment at the 1st true leaf stage. Test solutions were sprayed onto the foliage by an automated electrostatic plant sprayer equipped with an atomizing spray nozzle. The plants were dried in the sprayer fume hood and then removed from the sprayer. Each pot was placed into perforated plastic bags with a zip closure. About 10 to 11 armyworm larvae were placed into the bag and the bags zipped closed. Test plants were maintained in a growth room at about 25° C. and about 20-40% relative humidity for 4 days, avoiding direct exposure to fluorescent light (24 hour photoperiod) to prevent trapping of heat inside the bags. Mortality and reduced feeding were assessed 4 days after treatment, compared to untreated control plants.

[8] = 800 ppm, egg and larval mortality visually assessed after 5 days

Cc1cccc(C)c1NC(=S)N/N=C/c1ccc2c(ccc3c2ncn3-c2ccc(OC(F)(F)F)cc2)n1 [Compound C-1, 1-(2,6-dimethylphenyl)-3-[(E)-[3-[4-(trifluoromethoxy)phenyl]imidazo[4,5-f]quinolin-7-yl]methyleneamino]thiourea]
≥ 75%: mortality at 800 ppm [1] | mortality at 800 ppm [2, 8] | mortality at 800 ppm [3] | mortality at 800 ppm [4]

Cc1cccc(C)c1N1C(=O)CS/C1=N\N=C\c1cc2ccc3c(ncn3-c3ccc(OC(F)(F)F)cc3)c2cn1 [Compound C-27, (2Z)-3-(2,6-dimethylphenyl)-2-[(E)-[3-[4-(trifluoromethoxy)phenyl]imidazo[4,5-h]isoquinolin-7-yl]methylenehydrazono]thiazolidin-4-one]
≥ 75%: mortality at 800 ppm [1] | mortality at 500 ppm [5] | mortality at 800 ppm [2, 8] | mortality at 800 ppm [3] | mortality at 800 ppm [4] | mortality at 500 ppm [6] | mortality at 500 ppm [7]

Cc1cccc(C)c1N1C(=O)CS/C1=N\N=C\c1cnc2c(ccc3c2ncn3-c2ccc(OC(F)(F)F)cc2)c1 [Compound C-15, (2Z)-3-(2,6-dimethylphenyl)-2-[(E)-[3-[4-(trifluoromethoxy)phenyl]imidazo[4,5-h]quinolin-7-yl]methylenehydrazono]thiazolidin-4-one]
≥ 75%: mortality at 800 ppm [1] | mortality at 500 ppm [5] | mortality at 800 ppm [2, 8] | mortality at 800 ppm [3] | mortality at 800 ppm [4] | mortality at 500 ppm [6] | mortality at 500 ppm [7]

CC(C)c1ccccc1N1CCCS/C1=N/N=C/c1ccc2c(ccc3c2ncn3-c2ccc(OC(F)(F)F)cc2)n1 [Compound C-22, (E)-3-(2-isopropylphenyl)-N-[(E)-[3-[4-(trifluoromethoxy)phenyl]imidazo[4,5-f]quinolin-7-yl]methyleneamino]-1,3-thiazinan-2-imine]
≥ 75%: mortality at 800 ppm [1] | mortality at 500 ppm [5] | mortality at 800 ppm [2, 8] | mortality at 800 ppm [3] | mortality at 800 ppm [4] | mortality at 500 ppm [6]

Cc1cccc(C)c1NC(=S)N/N=C/c1cc2ccc3c(ncn3-c3ccc(OC(F)(F)F)cc3)c2cn1 [Compound C-25, 1-(2,6-dimethylphenyl)-3-[(E)-[3-[4-(trifluoromethoxy)phenyl]imidazo[4,5-h]isoquinolin-7-yl]methyleneamino]thiourea]
≥ 75%: mortality at 800 ppm [2, 8] | mortality at 800 ppm [3] | mortality at 800 ppm [4] | mortality at 500 ppm [6]

CC(C)c1ccccc1NC(=S)N/N=C/c1ccc2c(ccc3c2ncn3-c2ccc(OC(F)F)cc2)n1 [Compound C-31, 1-[(E)-[3-[4-(difluoromethoxy)phenyl]imidazo[4,5-f]quinolin-7-yl]methyleneamino]-3-(2-isopropylphenyl)thiourea]
≥ 75%: mortality at 500 ppm [5] | mortality at 500 ppm [6]

Cc1cccc(C)c1NC(=S)N/N=C/c1cnc2c(ccc3c2ncn3-c2ccc(OC(F)(F)F)cc2)c1 [Compound C-14, 1-(2,6-dimethylphenyl)-3-[(E)-[3-[4-(trifluoromethoxy)phenyl]imidazo[4,5-h]quinolin-7-yl]methyleneamino]thiourea]
≥ 75%: mortality at 800 ppm [1] | mortality at 500 ppm [5] | mortality at 800 ppm [2, 8] | mortality at 800 ppm [3] | mortality at 800 ppm [4] | mortality at 500 ppm [6]

Cc1cccc(C)c1/N=C1\SCC(=O)N1/N=C/c1ccc2c(ccc3c2ncn3-c2ccc(OC(F)(F)F)cc2)n1 [Compound C-7, (2Z)-2-(2,6-dimethylphenyl)imino-3-[(E)-[3-[4-(trifluoromethoxy)phenyl]imidazo[4,5-f]quinolin-7-yl]methyleneamino]thiazolidin-4-one]
≥ 75%: mortality at 800 ppm [1] | mortality at 500 ppm [5] | mortality at 800 ppm [2, 8] | mortality at 800 ppm [3] | mortality at 800 ppm [4] | mortality at 500 ppm [6] | mortality at 500 ppm [7]

CC(C)c1ccccc1NC(=S)N/N=C/c1cnc2c(ccc3c2ncn3-c2ccc(OC(F)(F)F)cc2)c1 [Compound C-13, 1-(2-isopropylphenyl)-3-[(E)-[3-[4-(trifluoromethoxy)phenyl]imidazo[4,5-h]quinolin-7-yl]methyleneamino]thiourea]
≥ 75%: mortality at 800 ppm [2, 8] | mortality at 800 ppm [3] | mortality at 800 ppm [4] | mortality at 500 ppm [6] | mortality at 500 ppm [7]

Cc1cccc(C)c1N1C(=O)CS/C1=N\N=C\c1ccc2c(ccc3c2ncn3-c2ccc(OC(F)(F)F)cc2)n1 [Compound C-2, (2Z)-3-(2,6-dimethylphenyl)-2-[(E)-[3-[4-(trifluoromethoxy)phenyl]imidazo[4,5-f]quinolin-7-yl]methylenehydrazono]thiazolidin-4-one]
≥ 75%: mortality at 800 ppm [1] | mortality at 500 ppm [5] | mortality at 800 ppm [2, 8] | mortality at 800 ppm [3] | mortality at 800 ppm [4] | mortality at 500 ppm [6] | mortality at 500 ppm [7]

CC1CCC(C(C)C)C(OC(=O)Nc2ccc3c(ccc4c3ncn4-c3ccc(OC(F)(F)F)cc3)n2)C1 (stereo not drawn) [Compound C-12, (2-isopropyl-5-methyl-cyclohexyl) N-[3-[4-(trifluoromethoxy)phenyl]imidazo[4,5-f]quinolin-7-yl]carbamate]
≥ 75%: mortality at 800 ppm [2]

CC(C)c1ccccc1NC(=S)N/N=C/c1cc2ccc3c(ncn3-c3ccc(OC(F)(F)F)cc3)c2cn1 [Compound C-24, 1-(2-isopropylphenyl)-3-[(E)-[3-[4-(trifluoromethoxy)phenyl]imidazo[4,5-h]isoquinolin-7-yl]methyleneamino]thiourea]
≥ 75%: mortality at 800 ppm [2, 8] | mortality at 800 ppm [3] | mortality at 800 ppm [4] | mortality at 500 ppm [6] | mortality at 500 ppm [7]

CC(C)c1ccccc1N1C(=O)CS/C1=N/N=C/c1ccc2c(ccc3c2ncn3-c2ccc(OC(F)F)cc2)n1 [Compound C-32, (2E)-2-[(E)-[3-[4-(difluoromethoxy)phenyl]imidazo[4,5-f]quinolin-7-yl]methylenehydrazono]-3-(2-isopropylphenyl)thiazolidin-4-one]
≥ 75%: mortality at 500 ppm [5] | mortality at 500 ppm [6]
